The source of these data is US10611757B2, “Crystalline form of chemical compound, and preparation method, composition, and application thereof” (WUHAN LL SCIENCE AND TECHNOLOGY DEVELOPMENT CO., LTD., priority 2016, dated 2020).

SMILES strings stand for the structures. “Also recorded” adds a separate entry of the source.

Data set [1] can be described thus: Competition test between crystalline forms at room temperature (ethyl acetate suspension, XRD). The data set is classed as physicochemical. The conditions noted are these: for stability under room temperature relative to the competing form: competition in ethyl acetate suspension. As to the method: Equivalent amounts of crystalline form I and crystalline form II samples were mixed well, added with 0.8 ml ethyl acetate to form a suspension, stirred overnight and detected by XRD.
Equivalent amounts of crystalline form II and form III samples were mixed well, added with 0.2 ml ethyl acetate to form a suspension, which was stirred overnight to obtain a crystalline form II determined by XRD detection.
Equivalent amounts of crystalline form I and form III samples were mixed uniformly, added with 0.2 ml ethyl acetate to form a suspension, which was stirred overnight, to obtain a crystalline form I determined by XRD detection.

Data set [2] is described as follows: Comparative stability of crystalline form III and IV on drying overnight at room temperature (XRD). It is filed as physicochemical. From the text: The crystalline form III and the crystalline form IV samples were respectively dried overnight at room temperature.
A short description of data set [3]: Comparative stability test (total impurity content, 25° C., 60% relative humidity). The conditions noted are these: for total impurity content: packed; for chemical stability relative to the amorphous form: total impurity content. The data set is classed as physicochemical. As to the method: The stability of an amorphous form, the crystalline form I, a mixture of the crystalline form I and the crystal II, the crystal II, and the crystalline form III of the compound (A) was investigated. Specifically, the amorphous form, the crystalline form I, the mixture of the crystalline form I and the crystalline form II (weight ratio 1:2), the crystalline form II and the crystalline form III were taken 200 mg respectively to be investigated as follows:
Packing: Polyvinyl chloride (PVC) ziplock bag (the inner layer) was vacuumized, aluminum foil (the middle layer) was vacuumized, and aluminum foil desiccant (the outer layer) was vacuum and filled in with nitrogen;
Inspection conditions: 25° C., 60% relative humidity. The indicator was the total impurity content, which is determined by detection of samples three times at each time point with the average value recorded. The time points for sampling include 0, 1, 2, 3 and 6 months after packing.

Data set [4] concerns spontaneously hypertensive rats. Nature of the data set: Antihypertensive efficacy test in spontaneously hypertensive rats (systolic blood pressure and heart rate by implanted sensor). It is filed as in vivo, rat. Particulars: SHR, 1 mg/kg; for Systolic blood pressure change / Heart rate change: average ± standard error; for Heart rate change: oral. As to the method:
12-week-old spontaneously hypertensive rats (hereinafter referred to as SHR, purchased from Beijing Weitong Lihua Experimental Animal Technology Co., Ltd.) were anesthetized with 2.5% sodium pentobarbital for intraperitoneal injection. After that, the blood pressure sensing catheter of hypertension implant was inserted into their abdominal aorta, while the implant was fixed to the abdominal wall, and then postoperative daily care was performed after suturing.
Rats with systolic blood pressure exceeding 160 mm Hg were divided into 3 groups (control group, compound (A) group and compound (B) group), wherein each group has 8 rats. The control group was administrated 0.5% sodium carboxymethyl cellulose (hereinafter referred to as CMC-Na); the compound (B) group and the compound (A) group were respectively administered the compound (B) and the compound (A), both of which were dissolved by 0.5% CMC-Na, by intragastric administration, at a dose of 1 mg/kg (calculated by the effective dose of valsartan) and a volume calculated by 4 mL/kg.
The systolic blood pressure and heart rate of SHR were compared before and after administration (the systolic blood pressure and heart rate of SHR before administration as reference value), which were detected three times at each time point with the average value recorded.

Data set [5] can be described thus: Effects of tabletting processes on the crystalline form II (XRD). The data set is classed as physicochemical. The conditions noted are these: tableted under 20 kg and 25 kg pressure. As to the method:
Tabletting method: 50 mg of the crystalline form II was tableted under 20 kg and 25 kg pressure by a single punching machine.
The XRD of the obtained sample powder was compared with the XRD of the crude sample, the results are shown in FIG. 8 (from top to bottom: the crude sample, the sample after 25 kg pressure tabletting and the sample after 20 kg pressure tabletting).

Data set [6] is described as follows: Influences of high temperature and high humidity on the crystalline form II (XRD). It is filed as physicochemical. Particulars: 10 days. As to the method:
Two samples of 20 mg the crystalline form II were respectively placed at 60° C. (sealed and shielded from light) and 85% relative humidity (exposed in the air at room temperature and shielded from light), detected by XRD after 10 days and compared with XRD of the crude sample.

Where [7] appears, read: intragastric, 1 hour after administration.
Setting [8] is: intragastric, 3 hours after administration.
Where [9] appears, read: intragastric, 5 hours after administration.
Where [10] appears, read: intragastric, 7 hours after administration.
Setting [11] is: intragastric, 10 hours after administration.
The mark [12] stands for this setting: intragastric, 24 hours after administration.
The mark [13] stands for this setting: intragastric, before administration (reference value).
Setting [14] is: before administration (reference value).

As to `CCOc1nc2cccc(C(=O)OC(C)OC(=O)OCc3nc(C)c(C)nc3C)c2n1Cc1ccc(-c2ccccc2-c2noc(=O)[n-]2)cc1.[K+]` (stereo not shown) [crystalline form III], the “transformation of crystalline form in competition with form I” value in data set [1] (equivalent amounts of form I and form III, ethyl acetate suspension, stirred overnight, XRD) was “completely transformed into the crystalline form I”. The “transformation of crystalline form in competition with form II” value in data set [1] (equivalent amounts of form II and form III, ethyl acetate suspension, stirred overnight, XRD) was “completely transformed into the crystalline form II”. For the same compound, the “share converted to the crystalline form I” value in data set [2] (dried overnight at room temperature, XRD) was “no more than 30%”. Further, the “stability at room temperature relative to crystalline form IV” value in data set [2] is “superior to that of the crystalline form IV”. Moreover, the total impurity content was determined as 1.56% in data set [3] (0 months); 2.55% in data set [3] (1 month); 2.98% in data set [3] (2 months); 3.34% in data set [3] (3 months); 3.76% in data set [3] (6 months). The “chemical stability relative to the amorphous form” value in data set [3] was “better than the amorphous form”.
Take `CCOc1nc2cccc(C(=O)OC(C)OC(=O)OCc3nc(C)c(C)nc3C)c2n1Cc1ccc(-c2ccccc2-c2noc(=O)[n-]2)cc1.[K+]` (stereo not shown) [crystalline form IV]: the “transformation of crystalline form on drying” value in data set [2] (dried at room temperature, XRD) is “converted to crystalline form I; also recorded: completely transformed into the crystalline form I”.
Take `CCOc1nc2cccc(C(=O)OC(C)OC(=O)OCc3nc(C)c(C)nc3C)c2n1Cc1ccc(-c2ccccc2-c2noc(=O)[n-]2)cc1.[K+]` (stereo not shown) [crystalline form I]: in data set [1], the “stability under room temperature relative to the competing form” value is “better than that of the crystalline form III”. Moreover, the “content of crystalline form I in the obtained product” value in data set [1] (equivalent amounts of form I and form II, ethyl acetate suspension, stirred overnight, XRD) is on record as “about 5%”. Besides, the “stability at room temperature relative to crystalline form IV” value in data set [2] is “superior to that of the crystalline form IV”. Besides, the total impurity content was 1.11% in data set [3] (0 months); 1.62% in data set [3] (1 month); 2.34% in data set [3] (2 months); 2.49% in data set [3] (3 months); 3.10% in data set [3] (6 months). Moreover, in data set [3], the “chemical stability relative to the amorphous form” value is listed as “better than the amorphous form”.
Regarding `CCOc1nc2cccc(C(=O)OC(C)OC(=O)OCc3nc(C)c(C)nc3C)c2n1Cc1ccc(-c2ccccc2-c2noc(=O)[nH]2)cc1` (stereo not shown) [Compound (B), reference compound], the “Systolic blood pressure change” value in data set [4] (setting [7]) is reported as −4.9 ± 4.8 mmHg; in data set [4] (setting [8]) it was −22.0 ± 3.6 mmHg; in data set [4] (setting [9]), −30.5 ± 3.5 mmHg; in data set [4] (setting [10]), −38.8 ± 2.3 mmHg; in data set [4] (setting [11]) it was −33.0 ± 1.7 mmHg; in data set [4] (setting [12]), −10.2 ± 2.1 mmHg. The “Systolic blood pressure change” value in data set [4] (setting [13]) is reported as 0.0 ± 0.0 mmHg. Moreover, the Heart rate change in data set [4] (1 hour after administration) is given as −3.4 ± 2.6 times/minute; in data set [4] (3 hours after administration) it was −2.33 ± 2.6 times/minute; in data set [4] (5 hours after administration), −6.5 ± 2.8 times/minute; in data set [4] (7 hours after administration), −6.2 ± 3.0 times/minute; in data set [4] (10 hours after administration), −12.3 ± 2.8 times/minute; in data set [4] (24 hours after administration), −6.7 ± 2.6 times/minute. This compound also came in with a Heart rate change in data set [4] (setting [14]) of 0.0 ± 0.0 times/minute.
In the case of `CCOc1nc2cccc(C(=O)OC(C)OC(=O)OCc3nc(C)c(C)nc3C)c2n1Cc1ccc(-c2ccccc2-c2noc(=O)[n-]2)cc1.[K+]` (stereo not shown) [crystalline form II], in data set [1], the “stability under room temperature relative to the competing form” value is “better than that of form I; also recorded: better than that of form III”. Further, the “stability at room temperature relative to crystalline form IV” value in data set [2] is “superior to that of the crystalline form IV”. Moreover, the “crystalline form after tabletting” value in data set [5] is on record as “remains unchanged”. Besides, the “crystalline form after high temperature” value in data set [6] (60° C., sealed and shielded from light) is given as “remains unchanged”. Moreover, in data set [6] (85% relative humidity, room temperature, shielded from light), the “crystalline form after high humidity” value is on record as “remains unchanged”. The total impurity content in data set [3] (0 months) stood at 1.29%; in data set [3] (1 month), 1.43%; in data set [3] (2 months) it was 1.59%; in data set [3] (3 months), 1.82%; in data set [3] (6 months), 1.87%. Moreover, in data set [3], the “chemical stability relative to the amorphous form” value was “better than the amorphous form”.
In the case of `CCOc1nc2cccc(C(=O)OC(C)OC(=O)OCc3nc(C)c(C)nc3C)c2n1Cc1ccc(-c2ccccc2-c2noc(=O)[n-]2)cc1.[K+]` (stereo not shown) [Compound (A)], in data set [4], the “effect of lowering heart rate compared with the compound (B) group” value was “more potent with longer-lasting effect of lowering heart rate”. The “antihypertensive effect compared with the compound (B) group” value in data set [4] (intragastric) was “more potent with longer-lasting antihypertensive effect”. For the same compound, the “Systolic blood pressure change” value in data set [4] (setting [7]) is on record as −7.0 ± 3.4 mmHg; in data set [4] (setting [8]), −34.3 ± 1.9 mmHg; in data set [4] (setting [9]), −46.5 ± 2.5 mmHg; in data set [4] (setting [10]) it was −49.4 ± 4.1 mmHg; in data set [4] (setting [11]), −45.3 ± 3.3 mmHg; in data set [4] (setting [12]), −25.9 ± 3.4 mmHg. In addition, in data set [4] (setting [13]), the “Systolic blood pressure change” value worked out at 0.0 ± 0.0 mmHg. Further, the Heart rate change in data set [4] (1 hour after administration) is recorded as −3.6 ± 2.4 times/minute; in data set [4] (3 hours after administration), −5.0 ± 2.5 times/minute; in data set [4] (5 hours after administration), −10.1 ± 3.0 times/minute; in data set [4] (7 hours after administration), −17.5 ± 3.0 times/minute; in data set [4] (10 hours after administration), −25.4 ± 2.4 times/minute; in data set [4] (24 hours after administration) it was −28.6 ± 8 times/minute. Also, the Heart rate change in data set [4] (setting [14]) is given as 0.0 ± 0.0 times/minute.
With `CCOc1nc2cccc(C(=O)OC(C)OC(=O)OCc3nc(C)c(C)nc3C)c2n1Cc1ccc(-c2ccccc2-c2noc(=O)[n-]2)cc1.[K+]` (stereo not shown) [mixture of crystalline form I and II], the total impurity content stood at 0.90% in data set [3] (0 months); 1.58% in data set [3] (1 month); 2.20% in data set [3] (2 months); 2.40% in data set [3] (3 months); 3.29% in data set [3] (6 months). Also, in data set [3], the “chemical stability relative to the amorphous form” value is given as “better than the amorphous form”.
